The NIST ThermoML archive (doi:10.1021/acs.jced.9b00442)

How the values were obtained:
[1] = refractive index (Na D-line) (dimensionless); conditions: 100 kPa, Liquid, Standard Abbe refractometry
[2] = 100 kPa, Liquid; for electrical conductivity: Frequency=0.0006 MHz, Alternating current cell with electrodes; for viscosity: Concentric cylinders viscometry; for mass density: Vibrating tube method

CCCC[N+](C)(C)CC.O=S(=O)([N-]S(=O)(=O)C(F)(F)F)C(F)(F)F
Conditions | electrical conductivity [S/m] | mass density [kg/m3] | refractive index | viscosity [mPa·s]
[1], 283.15 K | – | – | 1.4174 | –
[1], 288.15 K | – | – | 1.416 | –
[1], 293.15 K | – | – | 1.4147 | –
[1], 298.15 K | – | – | 1.4133 | –
[1], 303.15 K | – | – | 1.412 | –
[1], 308.15 K | – | – | 1.4106 | –
[1], 313.15 K | – | – | 1.4092 | –
[1], 318.15 K | – | – | 1.4078 | –
[1], 323.15 K | – | – | 1.4064 | –
[1], 328.15 K | – | – | 1.4051 | –
[1], 333.15 K | – | – | 1.4038 | –
[1], 338.15 K | – | – | 1.4024 | –
[1], 343.15 K | – | – | 1.4012 | –
[1], 348.15 K | – | – | 1.3998 | –
[1], 353.15 K | – | – | 1.3985 | –
[1], 358.15 K | – | – | 1.3973 | –
[2], 283.15 K | 0.082 | – | – | –
[2], 288.15 K | 0.11 | 1380.6 | – | 176.1
[2], 289.15 K | – | 1379.7 | – | –
[2], 290.15 K | – | 1378.8 | – | –
[2], 291.15 K | – | 1377.9 | – | –
[2], 292.15 K | – | 1377 | – | –
[2], 293.15 K | 0.143 | 1376.1 | – | 132.4
[2], 294.15 K | – | 1375.2 | – | –
[2], 295.15 K | – | 1374.3 | – | –
[2], 296.15 K | – | 1373.4 | – | –
[2], 297.15 K | – | 1372.5 | – | –
[2], 298.15 K | 0.182 | 1371.6 | – | 100.5
[2], 299.16 K | – | 1370.8 | – | –
[2], 300.16 K | – | 1369.9 | – | –
[2], 301.15 K | – | 1369 | – | –
[2], 302.15 K | – | 1368.1 | – | –
[2], 303.15 K | 0.228 | 1367.2 | – | 78.4
[2], 304.15 K | – | 1366.3 | – | –
[2], 305.15 K | – | 1365.4 | – | –
[2], 306.15 K | – | 1364.6 | – | –
[2], 307.15 K | – | 1363.7 | – | –
[2], 308.15 K | 0.279 | 1362.8 | – | 62.3
[2], 309.15 K | – | 1361.9 | – | –
[2], 310.15 K | – | 1361.1 | – | –
[2], 311.15 K | – | 1360.2 | – | –
[2], 312.15 K | – | 1359.3 | – | –
[2], 313.15 K | 0.337 | 1358.4 | – | 50.9
[2], 314.15 K | – | 1357.6 | – | –
[2], 315.15 K | – | 1356.7 | – | –
[2], 316.15 K | – | 1355.8 | – | –
[2], 317.15 K | – | 1355 | – | –
[2], 318.15 K | 0.401 | 1354.1 | – | 41.2
[2], 319.15 K | – | 1353.2 | – | –
[2], 320.15 K | – | 1352.3 | – | –
[2], 321.15 K | – | 1351.5 | – | –
[2], 322.15 K | – | 1350.6 | – | –
[2], 323.15 K | 0.473 | 1349.7 | – | 34.2
[2], 324.15 K | – | 1348.9 | – | –
[2], 325.15 K | – | 1348 | – | –
[2], 326.15 K | – | 1347.2 | – | –
[2], 327.15 K | – | 1346.3 | – | –
[2], 328.15 K | – | 1345.5 | – | 28.8
[2], 329.15 K | – | 1344.6 | – | –
[2], 330.15 K | – | 1343.7 | – | –
[2], 331.15 K | – | 1342.9 | – | –
[2], 332.15 K | – | 1342 | – | –
[2], 333.15 K | – | 1341.2 | – | 24.8
[2], 334.15 K | – | 1340.3 | – | –
[2], 335.16 K | – | 1339.5 | – | –
[2], 336.15 K | – | 1338.6 | – | –
[2], 337.15 K | – | 1337.8 | – | –
[2], 338.15 K | – | 1336.9 | – | 21
[2], 339.15 K | – | 1336 | – | –
[2], 340.15 K | – | 1335.2 | – | –
[2], 341.15 K | – | 1334.3 | – | –
[2], 342.15 K | – | 1333.5 | – | –
[2], 343.15 K | – | 1332.6 | – | 18.2
[2], 344.15 K | – | 1331.8 | – | –
[2], 345.15 K | – | 1330.9 | – | –
[2], 346.15 K | – | 1330.1 | – | –
[2], 347.15 K | – | 1329.2 | – | –
[2], 348.15 K | – | 1328.4 | – | 15.9
[2], 349.15 K | – | 1327.5 | – | –
[2], 350.15 K | – | 1326.7 | – | –
[2], 351.15 K | – | 1325.9 | – | –
[2], 352.15 K | – | 1325 | – | –
[2], 353.15 K | – | 1324.2 | – | 14.2
[2], 354.15 K | – | 1323.3 | – | –
[2], 355.15 K | – | 1322.5 | – | –
[2], 356.15 K | – | 1321.6 | – | –
[2], 357.15 K | – | 1320.8 | – | –
[2], 358.15 K | – | 1319.9 | – | 12.4
[2], 359.15 K | – | 1319.1 | – | –
[2], 360.15 K | – | 1318.3 | – | –
[2], 361.15 K | – | 1317.4 | – | –
[2], 362.16 K | – | 1316.6 | – | –
[2], 363.15 K | – | 1315.7 | – | 11
